Literature values in patent US11596693B2, “Antibody-drug conjugates and uses thereof” (priority 2019, dated 2023).
Square brackets hold non-standard residues; d marks the D form. Peptide text beside a SMILES is read from it. * marks the point of attachment. Dolaproine = CO[C@@H]([C@@H]1CCCN1)[C@@H](C)C(=O)O; Dil = CC[C@H](C)[C@H](NC)[C@@H](CC(=O)O)OC; X1 = C[C@@H](N*)[C@@H](O)c1ccccc1; NMeV = CN[C@H](C(=O)O)C(C)C

Experiments:
many cells = conditions: for many cells
[1] = tested on: human-derived cancer cell lines; conditions: read-out: median inhibitory concentration

Compound	IC50 (many cells) [nM]	IC50 [1] [nM]
COc1cc2cc(c1Cl)N(C)C(=O)CC(OC(=O)[C@H](C)N(C)C(=O)CCS)C1(C)OC1C(C)C1CC(O)(NC(=O)O1)C(OC)/C=C/C=C(\C)C2 (stereo partly shown) [DM1]	~0.01	
COc1cccc2c1C(=O)c1c(O)c3c(c(O)c1C2=O)C[C@@](O)(C(=O)CO)C[C@@H]3O[C@H]1C[C@H](N)[C@H](O)[C@H](C)O1 [doxorubicins, Doxorubicin]		100 to 200
CC[C@H](C)[C@@H]([C@@H](CC(=O)N1CCC[C@H]1[C@H](OC)[C@@H](C)C(=O)N[C@H](C)[C@@H](O)c1ccccc1)OC)N(C)C(=O)[C@@H](NC(=O)[C@@H](NC)C(C)C)C(C)C [MMAE, Monomethyl auristatin E] (H-[NMeV]V[Dil][Dolaproine]-X1)	0.01 to 1	
COc1cc2cc(c1Cl)N(C)C(=O)CC(OC(=O)[C@H](C)N(C)C(=O)CCC(C)(C)S)C1(C)OC1C(C)C1CC(O)(NC(=O)O1)C(OC)/C=C/C=C(\C)C2 (stereo partly shown) [DM4]	~0.001	
